The test has as its target T1, PE-labeled human PD-L1-Ig binding to Jurkat cell line over-expressing human PD-1 (Jurkat-PD-1) (Homo sapiens, UniProt Q15116).
T1 construct: expressed in transfected cells; host or cells: Jurkat
Description: Jurkat-PD-1 Cell Binding High-Content Screening Assay (CBA): Method 1. As to conditions: Jurkat-hPD-1 cells, PE-labeled PD-L1-Ig 20 nM final; read-out: Jurkat HPDL1 PD1 IC50 (uM) (Method 1).

Bridge positions count the residues as written; N and C are the ends. Square brackets hold non-standard residues; d marks the D form. Peptide text beside a SMILES is read from it. * marks the point of attachment. Trp(5-CN) = N#Cc1ccc2[nH]cc(C[C@H](N)C(=O)O)c2c1; Phe(4-COOH) = N[C@@H](Cc1ccc(C(=O)O)cc1)C(=O)O; Bip = N[C@@H](Cc1ccc(-c2ccccc2)cc1)C(=O)O; Phe(4-CN) = N#Cc1ccc(C[C@H](N)C(=O)O)cc1; Phe(3-Me) = Cc1cccc(C[C@H](N)C(=O)O)c1; Val(3-OH) = CC(C)(O)[C@H](N)C(=O)O; Cha = N[C@@H](CC1CCCCC1)C(=O)O; Cit = NC(=O)NCCC[C@H](N)C(=O)O; Carboxymethyl = O=C(O)C*; NMeA = CN[C@@H](C)C(=O)O; Orn = NCCC[C@H](N)C(=O)O; Pra = C#CC[C@H](N)C(=O)O; Dab = NCC[C@H](N)C(=O)O; Dap = NC[C@H](N)C(=O)O

T1 sequence (Q15116 25-288): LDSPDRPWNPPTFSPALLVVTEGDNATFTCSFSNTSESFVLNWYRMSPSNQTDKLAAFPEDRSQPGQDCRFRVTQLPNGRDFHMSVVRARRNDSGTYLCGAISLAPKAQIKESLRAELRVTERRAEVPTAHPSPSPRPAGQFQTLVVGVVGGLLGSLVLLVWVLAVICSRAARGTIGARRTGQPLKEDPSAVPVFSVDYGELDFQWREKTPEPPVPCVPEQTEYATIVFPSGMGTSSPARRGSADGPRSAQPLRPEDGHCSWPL

Regarding `CC(C)C[C@@H]1NC(=O)[C@H](CCCNC(=N)N)NC(=O)[C@@H](CC(C)C)NC(=O)[C@H](C)N(C)C(=O)[C@H](CCCNC(=N)N)NC(=O)[C@H](Cc2ccc(-c3ccccc3)cc2)NC(=O)[C@H](C(C)C)NC(=O)[C@H](Cc2c[nH]c3ccccc23)NC(=O)[C@H](CC(=O)O)NC(=O)[C@H](Cc2ccc(C#N)cc2)NC(=O)[C@H](Cc2ccccc2)NC(=O)CSC[C@@H](C(=O)N[C@@H](C)C(N)=O)NC(=O)[C@H]([C@@H](C)O)NC(=O)[C@H](C(C)C)NC1=O` [Compound 1100] ({CH2CO}-F[Phe(4-CN)]DWV[Bip]R[NMeA][dL]RLVTCA-NH2; thioether N-14), the concentration for half-maximal inhibition (IC50) (in general, the concentration at which inhibition is half-maximal) worked out at 0.53 µM.

Take `CC(C)C[C@H]1NC(=O)[C@H](C)N(C)C(=O)[C@H](CCCNC(N)=O)NC(=O)[C@H](Cc2ccc(-c3ccccc3)cc2)NC(=O)[C@H](C(C)C)NC(=O)[C@H](Cc2c[nH]c3ccccc23)NC(=O)[C@H](CC(=O)O)NC(=O)[C@H](Cc2ccc(OCC(=O)O)cc2)NC(=O)[C@H](Cc2ccccc2)NC(=O)CSC[C@@H](C(=O)N[C@@H](C)C(N)=O)NC(=O)[C@H](CO)NC(=O)[C@H](C(C)C)NC(=O)[C@H](CC2CCCCC2)NC(=O)[C@H](CC(N)=O)NC1=O` [Compound 2022] ({CH2CO}-FY(Carboxymethyl)DWV[Bip][Cit][NMeA][dL]N[Cha]VSCA-NH2; thioether N-14): the IC50 was 0.01 µM. To `Cc1cccc(C[C@@H]2NC(=O)[C@H](CC(=O)O)NC(=O)[C@H](Cc3ccc(OCC(=O)O)cc3)NC(=O)[C@H]([C@@H](C)O)NC(=O)CSC[C@@H](C(N)=O)NC(=O)[C@H](CCCN)NC(=O)[C@H](C(C)C)NC(=O)[C@H](CC3CCCCC3)NC(=O)[C@H](CCN)NC(=O)[C@@H](CC(C)C)NC(=O)[C@H](C)N(C)C(=O)[C@H](Cc3ccc(OCC(=O)O)cc3)NC(=O)[C@H](Cc3ccc(-c4ccccc4)cc3)NC(=O)[C@H](Cc3ccc(OCC(=O)O)cc3)NC2=O)c1` [Compound 1674] ({CH2CO}-TY(Carboxymethyl)D[Phe(3-Me)]Y(Carboxymethyl)[Bip]Y(Carboxymethyl)[NMeA][dL][Dab][Cha]V[Orn]C-NH2; thioether N-14) belongs 0.07 µM; to `CC(C)C[C@@H]1NC(=O)[C@H](CCN)NC(=O)[C@@H](CC(C)C)NC(=O)[C@H](C)N(C)C(=O)[C@H](CCCNC(N)=O)NC(=O)[C@H](Cc2ccc(-c3ccccc3)cc2)NC(=O)[C@H](C(C)C)NC(=O)[C@H](Cc2c[nH]c3ccccc23)NC(=O)[C@H](CC(=O)O)NC(=O)[C@H](Cc2ccc(C#N)cc2)NC(=O)[C@H](CN)NC(=O)CSC[C@@H](C(=O)N[C@@H](C)C(N)=O)NC(=O)[C@H]([C@@H](C)O)NC(=O)[C@H](C(C)C)NC1=O` [Compound 1408] ({CH2CO}-[Dap][Phe(4-CN)]DWV[Bip][Cit][NMeA][dL][Dab]LVTCA-NH2; thioether N-14), 0.1 µM; to `CC(C)C[C@@H]1NC(=O)[C@H](CCN)NC(=O)[C@@H](CC(C)C)NC(=O)[C@H](C)N(C)C(=O)[C@H](CCC(N)=O)NC(=O)[C@H](Cc2ccc(-c3ccccc3)cc2)NC(=O)[C@H](C(C)C)NC(=O)[C@H](Cc2c[nH]c3ccccc23)NC(=O)[C@H](CC(=O)O)NC(=O)[C@H](Cc2ccc(O)cc2)NC(=O)[C@H](CC(N)=O)NC(=O)CSC[C@@H](C(=O)N[C@@H](C)C(N)=O)NC(=O)[C@H]([C@@H](C)O)NC(=O)[C@H](C(C)C)NC1=O` [Compound 1301] ({CH2CO}-NYDWV[Bip]Q[NMeA][dL][Dab]LVTCA-NH2; thioether N-14), 0.06 µM. With `CC(C)C[C@@H]1NC(=O)[C@H](CCN)NC(=O)[C@@H](CC(C)C)NC(=O)[C@H](C)N(C)C(=O)[C@H](CCCNC(=N)N)NC(=O)[C@H](Cc2ccc(-c3ccccc3)cc2)NC(=O)[C@H](C(C)C)NC(=O)[C@H](Cc2c[nH]c3ccc(C#N)cc23)NC(=O)[C@H](CC(=O)O)NC(=O)[C@H](Cc2ccc(O)cc2)NC(=O)[C@H](Cc2ccccc2)NC(=O)CSC[C@@H](C(=O)N[C@@H](C)C(N)=O)NC(=O)[C@H]([C@@H](C)O)NC(=O)[C@H](C(C)C)NC1=O` [Compound 1203] ({CH2CO}-FYD[Trp(5-CN)]V[Bip]R[NMeA][dL][Dab]LVTCA-NH2; thioether N-14), the IC50 was determined as 0.1 µM. Regarding `Cc1cccc(C[C@@H]2NC(=O)[C@H](CC(=O)O)NC(=O)[C@H](Cc3ccc(C(=O)O)cc3)NC(=O)[C@H](Cc3ccc(OCC(=O)O)cc3)NC(=O)CSC[C@@H](C(=O)N[C@@H](C)C(N)=O)NC(=O)[C@H]([C@@H](C)O)NC(=O)[C@H](C(C)C)NC(=O)[C@H](CC(C)C)NC(=O)[C@H](CCN)NC(=O)[C@@H](CC(C)C)NC(=O)[C@H](C)N(C)C(=O)[C@H](CCCNC(N)=O)NC(=O)[C@H](Cc3ccc(-c4ccccc4)cc3)NC(=O)[C@H](C(C)C)NC2=O)c1` [Compound 1574] ({CH2CO}-Y(Carboxymethyl)[Phe(4-COOH)]D[Phe(3-Me)]V[Bip][Cit][NMeA][dL][Dab]LVTCA-NH2; thioether N-14), the IC50 was determined as 0.02 µM.

`CC(C)C[C@@H]1NC(=O)[C@H](Cc2c[nH]c3ccccc23)NC(=O)[C@H](CC(=O)O)NC(=O)[C@H](Cc2ccc(C(=O)O)cc2)NC(=O)[C@H](Cc2ccc(OCC(=O)O)cc2)NC(=O)CSC[C@@H](C(=O)N[C@@H](CC(N)=O)C(N)=O)NC(=O)[C@H](CO)NC(=O)[C@H](C(C)C)NC(=O)[C@H](CC2CCCCC2)NC(=O)[C@H](CCN)NC(=O)[C@@H](CC(C)C)NC(=O)[C@H](C)N(C)C(=O)[C@H](C(C)C)NC(=O)[C@H](Cc2ccc(-c3ccccc3)cc2)NC1=O` [Compound 1911] ({CH2CO}-Y(Carboxymethyl)[Phe(4-COOH)]DWL[Bip]V[NMeA][dL][Dab][Cha]VSCN-NH2; thioether N-14): the IC50 turned out to be 0.01 µM. Take `CC(C)C[C@@H]1NC(=O)[C@H](CCCNC(=N)N)NC(=O)[C@@H](Cc2ccccc2)NC(=O)[C@H](C)N(C)C(=O)[C@H](CCCNC(=N)N)NC(=O)[C@H](Cc2ccc(-c3ccccc3)cc2)NC(=O)[C@H](C(C)C)NC(=O)[C@H](Cc2c[nH]c3ccccc23)NC(=O)[C@H](CC(=O)O)NC(=O)[C@H](Cc2ccc(O)cc2)NC(=O)[C@H](Cc2cnc[nH]2)NC(=O)CSC[C@@H](C(=O)N[C@@H](C)C(N)=O)NC(=O)[C@H](CO)NC(=O)[C@H](C(C)C)NC1=O` [Compound 1044] ({CH2CO}-HYDWV[Bip]R[NMeA][dF]RLVSCA-NH2; thioether N-14): the IC50 came to 0.04 µM. In the case of `C#CC[C@H](NC(=O)CNC(=O)[C@@H]1CSCC(=O)N[C@@H]([C@@H](C)O)C(=O)N[C@@H](Cc2ccc(OCC(=O)O)cc2)C(=O)N[C@@H](CC(=O)O)C(=O)N[C@@H](Cc2cccc(C)c2)C(=O)N[C@@H](Cc2ccc(OCC(=O)O)cc2)C(=O)N[C@@H](Cc2ccc(-c3ccccc3)cc2)C(=O)N[C@@H](Cc2ccc(OCC(=O)O)cc2)C(=O)N(C)[C@@H](C)C(=O)N[C@H](CC(C)C)C(=O)N[C@@H](CCN)C(=O)N[C@@H](CC2CCCCC2)C(=O)N[C@@H](C(C)(C)O)C(=O)N[C@@H](CCC(=O)O)C(=O)N1)C(N)=O` [Compound 1939] ({CH2CO}-TY(Carboxymethyl)D[Phe(3-Me)]Y(Carboxymethyl)[Bip]Y(Carboxymethyl)[NMeA][dL][Dab][Cha][Val(3-OH)]ECG[Pra]-NH2; thioether N-14), the IC50 worked out at 0.11 µM.

Values taken from patent US20240409585A1, “MACROCYCLIC IMMUNOMODULATORS” (priority 2021, published 2024).
